Laboratory results as given in ChEMBL document CHEMBL1201862, “PubChem BioAssay data set” (2004).
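Briefly, cells in 96-well plates were exposed to five compound concentrations for 48 h, and endpoints were estimated by linear interpolation. Abbreviation: GI50, concentration required for 50% inhibition of growth.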 Activity calls are given as the source filed them. Cut-off read from the data, not from the text of the source: active = GI50 up to about 1.1 µM and inactive = higher.

How the values were obtained:
Test in all cases: growth of human tumour cells (NCI), 48 h
RXF 393 = tested on: RXF 393
OVCAR-3 = tested on: OVCAR-3
SNB-19 = tested on: SNB-19
MOLT-4 = tested on: MOLT-4
SF-268 = tested on: SF-268
UACC-257 = tested on: UACC-257
COLO 205 = tested on: COLO 205
A549 = tested on: A549
HOP-92 = tested on: HOP-92
U-251 = tested on: U-251
SF-539 = tested on: SF-539
786-0 = tested on: 786-0
T47D = tested on: T47D
BT-549 = tested on: BT-549
SW-620 = tested on: SW-620
Hs-578T = tested on: Hs-578T
SK-MEL-2 = tested on: SK-MEL-2
MDA-N = tested on: MDA-N
HT-29 = tested on: HT-29
ACHN = tested on: ACHN
HCC 2998 = tested on: HCC 2998
HCT-15 = tested on: HCT-15
M14 = tested on: M14
HOP-62 = tested on: HOP-62
OVCAR-5 = tested on: OVCAR-5
SK-MEL-5 = tested on: SK-MEL-5
IGROV-1 = tested on: IGROV-1
SN12C = tested on: SN12C
NCI-H23 = tested on: NCI-H23
KM12 = tested on: KM12
K562 = tested on: K562
OVCAR-4 = tested on: OVCAR-4
MDA-MB-435 = tested on: MDA-MB-435
UO-31 = tested on: UO-31
Malme-3M = tested on: Malme-3M
NCI/ADR-RES = tested on: NCI/ADR-RES
SK-OV-3 = tested on: SK-OV-3
TK-10 = tested on: TK-10
DU-145 = tested on: DU-145
SK-MEL-28 = tested on: SK-MEL-28
OVCAR-8 = tested on: OVCAR-8
MCF7 = tested on: MCF7
CAKI-1 = tested on: CAKI-1
A498 = tested on: A498
MDA-MB-231 = tested on: MDA-MB-231
UACC-62 = tested on: UACC-62
NCI-H522 = tested on: NCI-H522
EKVX = tested on: EKVX
NCI-H460 = tested on: NCI-H460
SF-295 = tested on: SF-295
PC-3 = tested on: PC-3
HCT-116 = tested on: HCT-116
SNB-75 = tested on: SNB-75
CCRF-CEM = tested on: CCRF-CEM
LOX IMVI = tested on: LOX IMVI
NCI-H226 = tested on: NCI-H226
RPMI-8226 = tested on: RPMI-8226
HL-60 = tested on: HL-60

CC(=O)C(C(C)=O)[C@H]1OC(C)(C)O[C@H]1[C@H]1COC(C)(C)O1
GI50 (RXF 393): 36.2 µM (inactive) | GI50 (OVCAR-3): 28.6 µM (inactive) | GI50 (SNB-19): 41.6 µM (inactive) | GI50 (MOLT-4): 50.8 µM (inactive) | GI50 (SF-268): 63.8 µM (inactive) | GI50 (UACC-257): 49.4 µM (inactive) | GI50 (COLO 205): 17.7 µM (inactive) | GI50 (A549): 42.6 µM (inactive) | GI50 (HOP-92): 80 µM (inactive) | GI50 (U-251): 24.9 µM (inactive) | GI50 (SF-539): 18.7 µM (inactive) | GI50 (786-0): 51.3 µM (inactive) | GI50 (T47D): 89.1 µM (inactive) | GI50 (BT-549): 28.4 µM (inactive) | GI50 (SW-620): 56.8 µM (inactive) | GI50 (Hs-578T): 44.8 µM (inactive) | GI50 (SK-MEL-2): 22.6 µM (inactive) | GI50 (MDA-N): 55.3 µM (inactive) | GI50 (HT-29): 33.6 µM (inactive) | GI50 (ACHN): 57.5 µM (inactive) | GI50 (HCC 2998): 26.5 µM (inactive) | GI50 (HCT-15): 29.6 µM | GI50 (M14): 44.3 µM (inactive) | GI50 (HOP-62): 23.4 µM (inactive) | GI50 (OVCAR-5): > 100 µM (inactive) | GI50 (SK-MEL-5): 29.1 µM (inactive) | GI50 (IGROV-1): 53.5 µM (inactive) | GI50 (SN12C): 29.6 µM (inactive) | GI50 (NCI-H23): 30.8 µM (inactive) | GI50 (KM12): 35.7 µM (inactive) | GI50 (K562): 34.4 µM (inactive) | GI50 (OVCAR-4): 40.6 µM (inactive) | GI50 (MDA-MB-435): 27.7 µM (inactive) | GI50 (UO-31): 49.8 µM (inactive) | GI50 (Malme-3M): > 100 µM (inactive) | GI50 (NCI/ADR-RES): 28.6 µM (inactive) | GI50 (SK-OV-3): 29.2 µM (inactive) | GI50 (TK-10): > 100 µM (inactive) | GI50 (DU-145): 42.1 µM (inactive) | GI50 (SK-MEL-28): 97.3 µM (inactive) | GI50 (OVCAR-8): 34.7 µM (inactive) | GI50 (MCF7): 35.6 µM (inactive) | GI50 (CAKI-1): 73.6 µM (inactive) | GI50 (A498): > 100 µM (inactive) | GI50 (MDA-MB-231): 28.6 µM (inactive) | GI50 (UACC-62): 43.2 µM (inactive) | GI50 (NCI-H522): 33.8 µM (inactive) | GI50 (EKVX): 50.6 µM (inactive) | GI50 (NCI-H460): 32.4 µM (inactive) | GI50 (SF-295): 29.2 µM (inactive) | GI50 (PC-3): 24.5 µM (inactive) | GI50 (HCT-116): 45.2 µM (inactive) | GI50 (SNB-75): 42.2 µM (inactive) | GI50 (CCRF-CEM): 36.9 µM (inactive) | GI50 (LOX IMVI): 32.7 µM (inactive)

CC(C)CC1[C@@H](OCc2ccccc2)COS(=O)(=O)N1Cc1ccccc1 (stereo partly specified)
GI50 (OVCAR-3): > 100 µM (inactive) | GI50 (SNB-19): 48.1 µM (inactive) | GI50 (MOLT-4): 73.6 µM (inactive) | GI50 (SF-268): 6.64 µM (inactive) | GI50 (UACC-257): > 100 µM (inactive) | GI50 (COLO 205): > 100 µM (inactive) | GI50 (A549): 67.6 µM (inactive) | GI50 (HOP-92): > 100 µM (inactive) | GI50 (U-251): > 100 µM (inactive) | GI50 (SF-539): > 100 µM (inactive) | GI50 (786-0): > 100 µM (inactive) | GI50 (T47D): > 100 µM (inactive) | GI50 (BT-549): > 100 µM (inactive) | GI50 (SW-620): > 100 µM (inactive) | GI50 (Hs-578T): 14.7 µM (inactive) | GI50 (SK-MEL-2): > 100 µM (inactive) | GI50 (MDA-N): > 10 µM (inactive) | GI50 (HT-29): 38.9 µM (inactive) | GI50 (ACHN): > 100 µM (inactive) | GI50 (NCI-H226): 86.7 µM (inactive) | GI50 (HCT-15): 74.5 µM | GI50 (M14): > 100 µM (inactive) | GI50 (HOP-62): > 100 µM (inactive) | GI50 (OVCAR-5): > 100 µM (inactive) | GI50 (SK-MEL-5): 83.2 µM (inactive) | GI50 (IGROV-1): 81.7 µM (inactive) | GI50 (RPMI-8226): 31.9 µM (inactive) | GI50 (SN12C): > 100 µM (inactive) | GI50 (NCI-H23): 20.7 µM (inactive) | GI50 (KM12): 20.7 µM (inactive) | GI50 (K562): 50.9 µM (inactive) | GI50 (HL-60): 46.2 µM (inactive) | GI50 (OVCAR-4): > 100 µM (inactive) | GI50 (MDA-MB-435): 44.5 µM (inactive) | GI50 (UO-31): 27.2 µM (inactive) | GI50 (Malme-3M): 62.5 µM (inactive) | GI50 (NCI/ADR-RES): 52.6 µM (inactive) | GI50 (SK-OV-3): > 100 µM (inactive) | GI50 (TK-10): > 100 µM (inactive) | GI50 (DU-145): > 100 µM (inactive) | GI50 (SK-MEL-28): > 100 µM (inactive) | GI50 (OVCAR-8): > 100 µM (inactive) | GI50 (MCF7): 91.8 µM (inactive) | GI50 (CAKI-1): > 100 µM (inactive) | GI50 (A498): > 100 µM (inactive) | GI50 (MDA-MB-231): > 100 µM (inactive) | GI50 (UACC-62): > 100 µM (inactive) | GI50 (NCI-H522): 24.4 µM (inactive) | GI50 (EKVX): > 100 µM (inactive) | GI50 (NCI-H460): > 100 µM (inactive) | GI50 (SF-295): 27.6 µM (inactive) | GI50 (PC-3): 65.5 µM (inactive) | GI50 (HCT-116): 53.5 µM (inactive) | GI50 (SNB-75): 82 µM (inactive) | GI50 (CCRF-CEM): > 100 µM (inactive) | GI50 (LOX IMVI): > 100 µM (inactive)
